# Source: ChEMBL document CHEMBL6127065, “Design and Synthesis of c-Met and HDAC Dual Inhibitors for the Treatment of Breast Cancer” (ACS Med Chem Lett, 2024)
# The source made the active and inactive calls. The rule behind the calls is not given here.
# Assays:
# MDA-MB-231 [1] = assay: Induction of apoptosis in human MDA-MB-231 cells assessed as necrotic cells at 10 uM incubated for 48 hrs by AnnexinV-FITC/PI staining based flow cytometry (reference value: 1.79 to 2.53%); type: functional
# MDA-MB-231 [2] = assay: Induction of apoptosis in human MDA-MB-231 cells assessed as early apoptotic cells at 10 uM incubated for 48 hrs by AnnexinV-FITC/PI staining based flow cytometry (reference value: 1.6 to 2.41%); type: functional
# MDA-MB-231 [3] = assay: Induction of apoptosis in human MDA-MB-231 cells assessed as early apoptotic cells at 5 uM incubated for 48 hrs by AnnexinV-FITC/PI staining based flow cytometry (reference value: 1.6 to 2.41%); type: functional
# MDA-MB-231 [4] = assay: Induction of apoptosis in human MDA-MB-231 cells assessed as viable cells at 25 uM incubated for 48 hrs by AnnexinV-FITC/PI staining based flow cytometry (reference value: 91.22 to 92.84%); type: functional; details: read-out: Activity
# MDA-MB-231 [5] = assay: Induction of apoptosis in human MDA-MB-231 cells assessed as viable cells at 5 uM incubated for 48 hrs by AnnexinV-FITC/PI staining based flow cytometry (reference value: 91.22 to 92.84%); type: functional; details: read-out: Activity
# [6] = target: T1, Hepatocyte growth factor receptor (Homo sapiens, UniProt P08581); assay: Inhibition of c-Met in human MDA-MB-231 cells assessed as inhibition of ERK phosphorylation incubated for 48 hrs by western blot analysis; type: cell-based; details: dose 1-25 µM
# T1 sequence (P08581 whole entry): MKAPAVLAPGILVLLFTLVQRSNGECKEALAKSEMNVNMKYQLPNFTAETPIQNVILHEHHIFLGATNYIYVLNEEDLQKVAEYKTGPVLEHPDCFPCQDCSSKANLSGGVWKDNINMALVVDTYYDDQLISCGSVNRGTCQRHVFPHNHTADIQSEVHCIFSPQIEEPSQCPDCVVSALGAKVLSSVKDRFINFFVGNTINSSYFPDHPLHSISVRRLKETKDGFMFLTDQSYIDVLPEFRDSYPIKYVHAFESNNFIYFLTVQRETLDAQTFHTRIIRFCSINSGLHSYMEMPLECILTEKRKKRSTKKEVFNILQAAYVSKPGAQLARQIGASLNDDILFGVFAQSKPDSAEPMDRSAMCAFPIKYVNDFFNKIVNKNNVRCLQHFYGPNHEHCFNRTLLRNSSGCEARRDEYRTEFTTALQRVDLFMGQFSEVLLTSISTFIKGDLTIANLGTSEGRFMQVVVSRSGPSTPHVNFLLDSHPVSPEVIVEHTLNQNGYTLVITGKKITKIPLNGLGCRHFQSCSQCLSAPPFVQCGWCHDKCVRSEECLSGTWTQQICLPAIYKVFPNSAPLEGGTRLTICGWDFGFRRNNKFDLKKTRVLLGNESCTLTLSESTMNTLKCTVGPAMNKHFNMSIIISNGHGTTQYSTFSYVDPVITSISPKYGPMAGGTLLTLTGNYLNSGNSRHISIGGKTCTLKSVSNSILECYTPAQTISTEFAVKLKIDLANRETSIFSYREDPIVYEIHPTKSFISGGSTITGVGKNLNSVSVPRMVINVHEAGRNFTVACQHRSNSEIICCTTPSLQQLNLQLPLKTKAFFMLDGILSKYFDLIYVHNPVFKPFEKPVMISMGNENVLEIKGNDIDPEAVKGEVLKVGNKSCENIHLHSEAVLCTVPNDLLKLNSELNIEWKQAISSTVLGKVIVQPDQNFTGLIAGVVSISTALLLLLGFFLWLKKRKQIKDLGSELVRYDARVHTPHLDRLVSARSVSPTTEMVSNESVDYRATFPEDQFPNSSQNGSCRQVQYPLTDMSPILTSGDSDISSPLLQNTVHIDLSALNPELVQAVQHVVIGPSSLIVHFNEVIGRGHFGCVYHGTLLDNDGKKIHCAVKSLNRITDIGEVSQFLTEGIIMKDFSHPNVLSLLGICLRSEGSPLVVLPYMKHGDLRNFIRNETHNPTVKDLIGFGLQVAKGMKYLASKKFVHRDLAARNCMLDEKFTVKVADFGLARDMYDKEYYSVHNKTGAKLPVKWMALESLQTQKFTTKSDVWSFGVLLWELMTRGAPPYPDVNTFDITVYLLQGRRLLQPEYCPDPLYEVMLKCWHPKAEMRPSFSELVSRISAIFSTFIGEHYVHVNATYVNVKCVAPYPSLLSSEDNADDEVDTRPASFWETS
# [7] = target: T1, Hepatocyte growth factor receptor; assay: Inhibition of c-Met (unknown origin) using Poly(Glu:Tyr)(4:1) and ATP as substrate incubated for 45 mins by Kinase-Glo Max reagent based luminescence analysis
# MDA-MB-231 [8] = assay: Induction of cell cycle arrest in human MDA-MB-231 cells assessed as accumulation of cells at G0/G1 phase at 25 uM incubated for 48 hrs by PI staining based flow cytometry (reference value: 55.36 to 55.82%); type: functional
# MDA-MB-231 [9] = assay: Induction of cell cycle arrest in human MDA-MB-231 cells assessed as accumulation of cells at S phase at 25 uM incubated for 48 hrs by PI staining based flow cytometry (reference value: 12.56 to 14.76%); type: functional
# MDA-MB-231 [10] = assay: Induction of cell cycle arrest in human MDA-MB-231 cells assessed as accumulation of cells at G2/M phase at 1 uM incubated for 48 hrs by PI staining based flow cytometry (reference value: 29.42 to 32.08%); type: functional
# [11] = target: T1, Hepatocyte growth factor receptor; assay: Inhibition of c-Met in human MDA-MB-231 cells assessed as inhibition of Akt phosphorylation at Ser473 residue incubated for 48 hrs by western blot analysis; type: cell-based; details: dose 1-25 µM
# MDA-MB-231 [12] = assay: Induction of cell cycle arrest in human MDA-MB-231 cells assessed as accumulation of cells at G0/G1 phase at 10 uM incubated for 48 hrs by PI staining based flow cytometry (reference value: 55.36 to 55.82%); type: functional
# MDA-MB-231 [13] = assay: Induction of cell cycle arrest in human MDA-MB-231 cells assessed as accumulation of cells at S phase at 10 uM incubated for 48 hrs by PI staining based flow cytometry (reference value: 12.56 to 14.76%); type: functional
# MDA-MB-231 [14] = assay: Induction of cell cycle arrest in human MDA-MB-231 cells assessed as accumulation of cells at G2/M phase at 25 uM incubated for 48 hrs by PI staining based flow cytometry (reference value: 29.42 to 32.08%); type: functional
# MDA-MB-468 = assay: Antiproliferative activity against human MDA-MB-468 cells assessed as reduction in cell growth incubated for 72 hrs by MTT assay; details: MDA-MB-468, 72 h
# MDA-MB-231 [15] = assay: Induction of cell cycle arrest in human MDA-MB-231 cells assessed as accumulation of cells at G2/M phase at 2.5 uM incubated for 48 hrs by PI staining based flow cytometry (reference value: 29.42 to 32.08%); type: functional
# MDA-MB-231 [16] = assay: Induction of apoptosis in human MDA-MB-231 cells assessed as upregulation of cleaved PARP level at 1 to 25 uM incubated for 48 hrs by western blot analysis; type: functional, cell-based; details: dose 1-25 µM
# MDA-MB-231 [17] = assay: Induction of apoptosis in human MDA-MB-231 cells assessed as upregulation of cleaved caspase 3 level at 1 to 25 uM incubated for 48 hrs by western blot analysis; type: functional, cell-based; details: dose 1-25 µM
# MDA-MB-231 [18] = assay: Induction of apoptosis in human MDA-MB-231 cells assessed as necrotic cells at 2.5 uM incubated for 48 hrs by AnnexinV-FITC/PI staining based flow cytometry (reference value: 1.79 to 2.53%); type: functional
# MDA-MB-231 [19] = assay: Induction of apoptosis in human MDA-MB-231 cells assessed as early apoptotic cells at 25 uM incubated for 48 hrs by AnnexinV-FITC/PI staining based flow cytometry (reference value: 1.6 to 2.41%); type: functional
# MDA-MB-231 [20] = assay: Induction of apoptosis in human MDA-MB-231 cells assessed as necrotic cells at 5 uM incubated for 48 hrs by AnnexinV-FITC/PI staining based flow cytometry (reference value: 1.79 to 2.53%); type: functional
# [21] = target: T1, Hepatocyte growth factor receptor; assay: Inhibition of c-Met in human MDA-MB-231 cells assessed as inhibition of Akt phosphorylation at […] residue incubated for 48 hrs by western blot analysis; type: cell-based; details: dose 1-25 µM
# MDA-MB-231 [22] = assay: Induction of apoptosis in human MDA-MB-231 cells assessed as early apoptotic cells at 2.5 uM incubated for 48 hrs by AnnexinV-FITC/PI staining based flow cytometry (reference value: 1.6 to 2.41%); type: functional
# MDA-MB-231 [23] = assay: Induction of apoptosis in human MDA-MB-231 cells assessed as necrotic cells at 25 uM incubated for 48 hrs by AnnexinV-FITC/PI staining based flow cytometry (reference value: 1.79 to 2.53%); type: functional
# [24] = Cytotoxicity against human MCF-10A cells assessed as reduction in cell viability incubated for 72 hrs by MTT assay; type: toxicity, cell-based
# MDA-MB-231 [25] = assay: Induction of cell cycle arrest in human MDA-MB-231 cells assessed as accumulation of cells at S phase at 1 uM incubated for 48 hrs by PI staining based flow cytometry (reference value: 12.56 to 14.76%); type: functional
# MDA-MB-231 [26] = assay: Anti-migration activity in human MDA-MB-231 cells assessed as inhibition of cell invasion incubated for 72 hrs by Transwell assay; type: functional, cell-based; details: dose 1-25 µM
# MDA-MB-231 [27] = assay: Induction of apoptosis in human MDA-MB-231 cells assessed as late apoptotic cells at 2.5 uM incubated for 48 hrs by AnnexinV-FITC/PI staining based flow cytometry (reference value: 3.77 to 3.84%); type: functional
# MDA-MB-231 [28] = assay: Induction of apoptosis in human MDA-MB-231 cells assessed as late apoptotic cells at 25 uM incubated for 48 hrs by AnnexinV-FITC/PI staining based flow cytometry (reference value: 3.77 to 3.84%); type: functional
# MDA-MB-231 [29] = assay: Induction of cell cycle arrest in human MDA-MB-231 cells assessed as accumulation of cells at S phase at 2.5 uM incubated for 48 hrs by PI staining based flow cytometry (reference value: 12.56 to 14.76%); type: functional
# MDA-MB-231 [30] = assay: Induction of apoptosis in human MDA-MB-231 cells assessed as upregulation of cleaved caspase 7 level at 1 to 25 uM incubated for 48 hrs by western blot analysis; type: functional, cell-based; details: dose 1-25 µM
smiles,measurement,setting,value
CC(c1ccc2ncccc2c1)n1nnc2ncc(N3CCN(Cc4ccc(/C=C/C(=O)Nc5ccccc5N)cc4)CC3)nc21 (stereo unspecified),Activity,MDA-MB-231 [1],1.67%
same,Activity,MDA-MB-231 [2],4.56%
same,Activity,MDA-MB-231 [3],3.1%
same,viability at 25 µM,MDA-MB-231 [4],82.8%
same,viability at 5 µM,MDA-MB-231 [5],85.5%
same,inhibition,[6],Dose-Dependent Effect
same,IC50,[7],28.9 nM
same,Activity,MDA-MB-231 [8],83.37%
same,Activity,MDA-MB-231 [9],6.06%
same,Activity,MDA-MB-231 [10],27.08%
same,inhibition,[11],Dose-Dependent Effect
same,Activity,MDA-MB-231 [12],75.71%
same,Activity,MDA-MB-231 [13],8.21%
same,Activity,MDA-MB-231 [14],10.57%
same,IC50,MDA-MB-468,1250 nM
same,Activity,MDA-MB-231 [15],23.33%
same,Activity,MDA-MB-231 [16],Active
same,Activity,MDA-MB-231 [17],Active
same,Activity,MDA-MB-231 [18],3.83%
same,Activity,MDA-MB-231 [19],3.51%
same,Activity,MDA-MB-231 [20],4.59%
same,inhibition,[21],Dose-Dependent Effect
same,Activity,MDA-MB-231 [22],4.92%
same,Activity,MDA-MB-231 [23],1.42%
same,IC50 at 72 h,[24],> 25000 nM
same,Activity,MDA-MB-231 [25],7.57%
same,Activity,MDA-MB-231 [26],Dose-Dependent Effect
same,Activity,MDA-MB-231 [27],6.97%
same,Activity,MDA-MB-231 [28],12.3%
same,Activity,MDA-MB-231 [29],9.53%
same,Activity,MDA-MB-231 [30],Active
